pKi: −log10 of the molar value.
Columns and labels:
Type in all cases: biochemical
[1] = biological target: T1, JAK1 (Homo sapiens, UniProt P23458); assay: JAK1 inhibition (Table 4); settings: read-out: JAK1 Ki
T1 construct: made in house; host or cells: SF9 insect cells (baculovirus)

[2] = biological target: T2, JAK2 (Homo sapiens, UniProt O60674); assay: JAK2 inhibition (Table 4); settings: read-out: JAK2 Ki
T2 construct: made in house; host or cells: SF9 insect cells (baculovirus)

[3] = biological target: T3, JAK3 (Homo sapiens, UniProt P52333); assay: JAK3 inhibition (Table 4); settings: read-out: JAK3 Ki
T3 construct: made in house; host or cells: SF9 insect cells (baculovirus)

[4] = biological target: T4, TYK2 (Homo sapiens, UniProt P29597); assay: TYK2 inhibition (Table 4)
T4 construct: made in house; host or cells: SF9 insect cells (baculovirus)
T4 sequence (P29597 873-1187): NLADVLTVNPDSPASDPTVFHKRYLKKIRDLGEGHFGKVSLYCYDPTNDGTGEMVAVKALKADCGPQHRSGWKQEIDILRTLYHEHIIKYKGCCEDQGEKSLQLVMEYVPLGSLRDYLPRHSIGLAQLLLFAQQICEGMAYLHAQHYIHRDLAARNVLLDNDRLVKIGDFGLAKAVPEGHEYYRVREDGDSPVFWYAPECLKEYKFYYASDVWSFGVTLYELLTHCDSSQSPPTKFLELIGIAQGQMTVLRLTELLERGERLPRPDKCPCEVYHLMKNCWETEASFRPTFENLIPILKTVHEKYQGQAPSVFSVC

T3 sequence (P52333 783-1124): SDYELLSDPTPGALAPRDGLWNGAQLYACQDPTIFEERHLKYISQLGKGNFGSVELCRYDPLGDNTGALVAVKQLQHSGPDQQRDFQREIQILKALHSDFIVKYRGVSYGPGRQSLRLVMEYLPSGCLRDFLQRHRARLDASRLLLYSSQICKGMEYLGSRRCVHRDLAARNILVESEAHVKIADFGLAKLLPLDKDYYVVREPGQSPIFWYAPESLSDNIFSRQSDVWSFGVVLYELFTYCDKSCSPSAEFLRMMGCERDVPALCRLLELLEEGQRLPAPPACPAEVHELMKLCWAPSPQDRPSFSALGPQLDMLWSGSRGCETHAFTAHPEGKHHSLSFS
T1 sequence (P23458 852-1154): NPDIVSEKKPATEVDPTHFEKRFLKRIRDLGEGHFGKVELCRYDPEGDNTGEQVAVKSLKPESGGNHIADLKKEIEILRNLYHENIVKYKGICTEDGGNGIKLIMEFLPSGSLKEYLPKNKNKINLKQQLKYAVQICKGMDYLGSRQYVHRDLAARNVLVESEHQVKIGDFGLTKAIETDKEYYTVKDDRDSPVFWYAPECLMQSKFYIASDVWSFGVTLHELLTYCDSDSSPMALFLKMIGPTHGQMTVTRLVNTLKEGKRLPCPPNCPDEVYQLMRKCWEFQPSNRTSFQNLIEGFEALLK
T2 sequence (O60674 812-1132): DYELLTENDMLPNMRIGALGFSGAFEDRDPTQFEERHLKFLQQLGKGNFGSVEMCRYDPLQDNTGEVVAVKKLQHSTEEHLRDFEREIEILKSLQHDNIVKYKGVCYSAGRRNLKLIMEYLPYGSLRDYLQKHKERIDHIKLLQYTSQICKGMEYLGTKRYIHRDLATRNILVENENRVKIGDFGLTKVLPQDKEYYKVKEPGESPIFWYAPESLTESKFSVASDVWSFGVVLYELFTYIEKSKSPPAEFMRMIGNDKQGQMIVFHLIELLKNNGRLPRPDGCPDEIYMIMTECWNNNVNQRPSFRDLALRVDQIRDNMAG

pKi [1] | pKi [2] | pKi [3] | pKi [4] | Compound
7.29 | 7.16 | 7.81 | 5.89 | N#CCCN1CCC(n2c(C3CCOCC3)nc3cnc4[nH]ccc4c32)CC1 [Example 385, 3-{4-[2-(Tetrahydro-pyran-4-yl)-6H-1,3,5,6-tetraaza-as-indacen-1-yl]-piperidin-1-yl}-propionitrile]
7.75 | 7.19 | 7.10 | 6.50 | N#CCCN1CCC(n2c(CCn3cncn3)nc3cnc4[nH]ccc4c32)CC1 [Example 386, 3-{4-[2-(2-[1,2,4]Triazol-1-yl-ethyl)-6H-1,3,5,6-tetraaza-as-indacen-1-yl]-piperidin-1-yl}-propionitrile]
7.81 | 7.27 | 7.15 | 6.46 | CC(=O)N(C)CCc1nc2cnc3[nH]ccc3c2n1C1CCN(CCC#N)CC1 [Example 387, N-(2-{1-[1-(2-Cyano-ethyl)-piperidin-4-yl]-1,6-dihydro-1,3,5,6-tetraaza-as-indacen-2-yl}-ethyl)-N-methyl-acetamide]
7.96 | 7.46 | 7.32 | 6.74 | CC(C)C(=O)N1CC(c2nc3cnc4[nH]ccc4c3n2C2CCN(CCC#N)CC2)C1 [Example 389, 3-{4-[2-(1-Isobutyryl-azetidin-3-yl)-6H-1,3,5,6-tetraaza-as-indacen-1-yl]-piperidin-1-yl}-propionitrile]
8.27 | 8.06 | 7.18 | 7.45 | Cc1nccn1Cc1nc2cnc3[nH]ccc3c2n1C1CCN(CCC#N)CC1 [Example 402, 3-{4-[2-(2-Methyl-imidazol-1-ylmethyl)-6H-1,3,5,6-tetraaza-as-indacen-1-yl]-piperidin-1-yl}-propionitrile]
7.99 | 7.72 | 7.62 | 6.99 | N#CCCN1CCC(n2c(Cc3cccnc3)nc3cnc4[nH]ccc4c32)CC1 [Example 403, 3-[4-(2-Pyridin-3-ylmethyl-6H-1,3,5,6-tetraaza-as-indacen-1-yl)-piperidin-1-yl]-propionitrile]
7.51 | 6.60 | 6.28 | 6.35 | N#CCCN1CCC(n2c(Cc3cccc(C#N)c3)nc3cnc4[nH]ccc4c32)CC1 [Example 405, 3-{1-[1-(2-Cyano-ethyl)-piperidin-4-yl]-1,6-dihydro-1,3,5,6-tetraaza-as-indacen-2-ylmethyl}-benzonitrile]
7.17 | 6.69 | 6.21 | 6.19 | N#CCCN1CCC(n2c(Cc3ccc(C(N)=O)cc3)nc3cnc4[nH]ccc4c32)CC1 [Example 406, 4-{1-[1-(2-Cyano-ethyl)-piperidin-4-yl]-1,6-dihydro-1,3,5,6-tetraaza-as-indacen-2-ylmethyl}-benzamide]
7.80 | 7.36 | 7.28 | 6.59 | N#CCCN1CCC(n2c(CCC3CC3)nc3cnc4[nH]ccc4c32)CC1 [Example 408, 3-{4-[2-(2-Cyclopropyl-ethyl)-6H-1,3,5,6-tetraaza-as-indacen-1-yl]-piperidin-1-yl}-propionitrile]
7.60 | 7.09 | 6.61 | 6.50 | Cc1ccnn1CCc1nc2cnc3[nH]ccc3c2n1C1CCN(CCC#N)CC1 [Example 410, 3-(4-{2-[2-(5-Methyl-pyrazol-1-yl)-ethyl]-6H-1,3,5,6-tetraaza-as-indacen-1-yl}-piperidin-1-yl)-propionitrile]
7.67 | 7.10 | 6.90 | 6.26 | Cn1cc(CCc2nc3cnc4[nH]ccc4c3n2C2CCN(CCC#N)CC2)cn1 [Example 412, 3-(4-{2-[2-(1-Methyl-1H-pyrazol-4-yl)-ethyl]-6H-1,3,5,6-tetraaza-as-indacen-1-yl}-piperidin-1-yl)-propionitrile]
7.68 | 7.22 | 6.65 | 6.74 | Cc1cnn(CCc2nc3cnc4[nH]ccc4c3n2C2CCN(CCC#N)CC2)c1 [Example 413, 3-(4-{2-[2-(4-Methyl-pyrazol-1-yl)-ethyl]-6H-1,3,5,6-tetraaza-as-indacen-1-yl}-piperidin-1-yl)-propionitrile]
7.75 | 7.25 | 6.81 | 6.86 | N#CCCN1CCC(n2c(CCn3cccn3)nc3cnc4[nH]ccc4c32)CC1 [Example 414, 3-{4-[2-(2-Pyrazol-1-yl-ethyl)-6H-1,3,5,6-tetraaza-as-indacen-1-yl]-piperidin-1-yl}-propionitrile]
7.18 | 7.09 | 7.41 | 7.54 | Cc1nc2cnc3[nH]ccc3c2n1[C@H]1CC[C@@H](C(=O)O)CC1 [Example 420, 4-(2-Methyl-6H-1,3,5,6-tetraaza-as-indacen-1-yl)-cyclohexanecarboxylic acid]
6.60 | 6.13 | 6.36 | 5.63 | Cc1nc2cnc3[nH]ccc3c2n1[C@H](C)CO [Example 421, (R)-2-(2-Methyl-6H-1,3,5,6-tetraaza-as-indacen-1-yl)-propan-1-ol]
6.85 | 6.42 | 6.51 | 5.91 | Cc1nc2cnc3[nH]ccc3c2n1[C@@H](C)CO [Example 422, (S)-2-(2-Methyl-6H-1,3,5,6-tetraaza-as-indacen-1-yl)-propan-1-ol]
8.01 | 7.85 | 8.01 | 6.95 | CCCC1(n2c(C)nc3cnc4[nH]ccc4c32)CC1 [Example 423, 2-Methyl-1-(1-propyl-cyclopropyl)-1,6-dihydro-1,3,5,6-tetraaza-as-indacene]
7.33 | 7.20 | 7.48 | 6.50 | COC[C@H](C)n1c(C)nc2cnc3[nH]ccc3c21 [Example 424, 1-((S)-2-Methoxy-1-methyl-ethyl)-2-methyl-1,6-dihydro-1,3,5,6-tetraaza-as-indacene]
7.08 | 7.01 | 6.75 | 6.40 | Cc1nc2cnc3[nH]ccc3c2n1C1CC1 [Example 425, 1-Cyclopropyl-2-methyl-1,6-dihydro-1,3,5,6-tetraaza-as-indacene]
7.23 | 6.79 | 5.91 | 6.30 | O=C(Cc1ccccc1)N1CC[C@@H](n2cnc3cnc4[nH]ccc4c32)C1 [Example 430, 2-Phenyl-1-[(R)-3-(6H-1,3,5,6-tetraaza-as-indacen-1-yl)-pyrrolidin-1-yl]-ethanone]
7.43 | 6.76 | 5.45 | 5.94 | N#Cc1ccc(CC(=O)N2CC[C@@H](n3cnc4cnc5[nH]ccc5c43)C2)cc1 [Example 431, 4-{2-Oxo-2-[(R)-3-(6H-1,3,5,6-tetraaza-as-indacen-1-yl)-pyrrolidin-1-yl]-ethyl}-benzonitrile]
7.71 | 7.75 | 5.89 | 7.14 | O=S(=O)(c1ccccc1)N1CC[C@@H](n2cnc3cnc4[nH]ccc4c32)C1 [Example 432, 1-((R)-1-Benzenesulfonyl-pyrrolidin-3-yl)-1,6-dihydro-1,3,5,6-tetraaza-as-indacene]
8.25 | 8.21 | 5.92 | 7.49 | N#Cc1cccc(S(=O)(=O)N2CC[C@@H](n3cnc4cnc5[nH]ccc5c43)C2)c1 [Example 434, 3-[(R)-3-(6H-1,3,5,6-Tetraaza-as-indacen-1-yl)-pyrrolidine-1-sulfonyl]-benzonitrile]
7.49 | 7.55 | 6.65 | 6.58 | O=S(=O)(Cc1ccccc1)N1CC[C@@H](n2cnc3cnc4[nH]ccc4c32)C1 [Example 435, 1-((R)-1-Phenylmethanesulfonyl-pyrrolidin-3-yl)-1,6-dihydro-1,3,5,6-tetraaza-as-indacene]
8.05 | 7.90 | 6.68 | 7.01 | N#Cc1cccc(CN2CC[C@@H](n3cnc4cnc5[nH]ccc5c43)C2)c1 [Example 436, 3-[(R)-3-(6H-1,3,5,6-Tetraaza-as-indacen-1-yl)-pyrrolidin-1-ylmethyl]-benzonitrile]
8.41 | 7.95 | 6.81 | 7.25 | O=C(CO)N1CCC(n2cnc3cnc4[nH]ccc4c32)CC1 [Example 437, 2-Hydroxy-1-[4-(6H-1,3,5,6-tetraaza-as-indacen-1-yl)-piperidin-1-yl]-ethanone]
7.07 | 6.36 | 5.96 | 5.70 | CN(C)CCC(=O)N1CCC(n2cnc3cnc4[nH]ccc4c32)CC1 [Example 439, 3-Dimethylamino-1-[4-(6H-1,3,5,6-tetraaza-as-indacen-1-yl)-piperidin-1-yl]-propan-1-one]
7.36 | 6.94 | 6.07 | 6.15 | O=C(CN1CCCC1=O)N1CCC(n2cnc3cnc4[nH]ccc4c32)CC1 [Example 440, 1-{2-Oxo-2-[4-(6H-1,3,5,6-tetraaza-as-indacen-1-yl)-piperidin-1-yl]-ethyl}-pyrrolidin-2-one]

Compound | pKi [1] | pKi [2] | pKi [3] | pKi [4]
CC(C)COCc1nc2cnc3[nH]ccc3c2n1C1CCN(CCC#N)CC1 [Example 407, 3-[4-(2-Isobutoxymethyl-6H-1,3,5,6-tetraaza-as-indacen-1-yl)-piperidin-1-yl]-propionitrile] | 7.09 | 6.91 | 6.77 | 6.22

Source: patent publication US8461328B2, “Tricyclic heterocyclic compounds, compositions and methods of use thereof” (Genentech, Inc., priority 2010, dated 2013)
